Source: patent publication US20200199102A1, “COMPOUNDS THAT PARTICIPATE IN COOPERATIVE BINDING AND USES THEREOF” (Revolution Medicines, Inc., priority 2017, published 2020)
Where a SMILES comes first, the peptide text is derived from it. [ ]: non-standard residue; d: D form. MeBmt = C/C=C/C[C@@H](C)[C@@H](O)[C@H](NC)C(=O)O; NMeY = CN[C@@H](Cc1ccc(O)cc1)C(=O)O; NMeT = CN[C@H](C(=O)O)[C@@H](C)O; NMeL = CN[C@@H](CC(C)C)C(=O)O; dNMeV = CN[C@@H](C(=O)O)C(C)C; NMeNva = CCC[C@H](NC)C(=O)O; NMeV = CN[C@H](C(=O)O)C(C)C; Abu = CC[C@H](N)C(=O)O; Sar = CNCC(=O)O

Key:
Cyclophilin A = target: T1, Cyclophilin A (Homo sapiens, UniProt P62937); assay: AlphaLISA inhibition of binding of biotinylated Cyclosporin A to FLAG tagged Cyclophilin A; conditions: for % signal: AlphaLISA signal; for % signal / % inhibition of CsA binding to Cyclophilin A: test concentration not given; for IC50: read-out: IC50 value of CsA binding to Cyclophilin A
T1 construct: made in house
Method in brief: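 Inhibition of biotin-CsA binding to FLAG-tagged Cyclophilin A read by AlphaLISA (ex 680, em 615 nm). Working stocks were 6 nM biotinylated CsA and 25 nM FLAG-CypA; beads and compound were combined first for 30 min, then protein added for 60 min, all at room temperature in the dark, with DMSO and cyclosporin A controls.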

HeLa-CyclophilinA cells = assay: Biosensor cell permeability assay (cyclophilin destabilizing mutant), HeLa-CyclophilinA cells; format: cell-based; conditions: 72 hrs
Description: Cell permeability of compounds can be determined using the following protocol.
This protocol utilizes a modified FKBP or cyclophilin destabilizing mutant to determine the bioactivity of FKBP binding compounds or cyclophilin binding compounds in whole cell assay.
DMEM, DMEM without Phenol Red, 10% FBS, 1× Sodium Pyruvate, 1× Glutamax. Add 125 μl of media with compound per well.
Plate HeLa-FKBP12 cells (for FKBP binding compounds) or HeLa-CyclophilinA cells (for cyclophilin binding compounds) and seed overnight at 5 k/well (approximately ˜18 hrs.). Using a multi-channel pipet, take out the old media and add ˜125 ul of new media with compounds. Compounds are diluted using DMEM without Phenol Red, 10% FBS, 1× Sodium Pyruvate, 1× Glutamax. Add 125 μL of media with compound per well. Cells are treated with compounds at concentration: 30, 10, 3.33, 1.11, 0.37, 0.12, 0.04 and 0.013 uM. Time points are taken at 72 hrs and plate read using plate reader with excitation/emission: 575/620.
Cell binding/permeability is calculated in fold-change (Total RFU of treated samples/total RFU of DMSO treated samples or total RFU above background (Total RFU minus total RFU of DMSO treated samples).

T1 sequence (P62937 whole entry, species assumed): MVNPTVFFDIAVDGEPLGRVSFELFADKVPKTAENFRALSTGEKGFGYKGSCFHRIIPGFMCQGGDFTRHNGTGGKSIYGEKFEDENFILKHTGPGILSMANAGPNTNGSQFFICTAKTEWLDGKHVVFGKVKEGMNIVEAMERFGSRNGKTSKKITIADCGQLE

Structure (SMILES) | % signal (Cyclophilin A) [%] | IC50 (Cyclophilin A) [µM] | % inhibition of CsA binding to Cyclophilin A (Cyclophilin A) [%] | IC50 (HeLa-CyclophilinA cells) [µM]
C/C=C/C[C@@H](C)[C@@H](O)[C@H]1C(=O)N[C@@H](CC)C(=O)N(C)CC(=O)N(C)[C@@H]([C@@H](C)CC)C(=O)N[C@@H](C(C)C)C(=O)N(C)[C@@H](CC(C)C)C(=O)N[C@@H](C)C(=O)N[C@H](C)C(=O)N(C)[C@@H](CC(C)C)C(=O)N(C)[C@@H](CC(C)C)C(=O)N(C)[C@@H](C(C)C)C(=O)N1C [Compound C33] | −0.08 | < 2 | 100.08 | < 3
C/C=C/C[C@@H](C)[C@@H](O)[C@H]1C(=O)N[C@@H](CC)C(=O)N(C)CC(=O)N(C)[C@@H](C)C(=O)N[C@@H](C(C)C)C(=O)N(C)[C@@H](CC(C)C)C(=O)N[C@@H](C)C(=O)N[C@H](C)C(=O)N(C)[C@@H](CC(C)C)C(=O)N(C)[C@@H](CC(C)C)C(=O)N(C)[C@@H](C(C)C)C(=O)N1C [Compound C34] | −0.01 | < 2 | 100.01 | < 3
C/C=C/C[C@@H](C)[C@@H](O)[C@H]1C(=O)N[C@@H](CC)C(=O)N(C)CC(=O)N(C)[C@H](C)C(=O)N[C@@H](C(C)C)C(=O)N(C)[C@@H](CC(C)C)C(=O)N[C@@H](C)C(=O)N[C@H](C)C(=O)N(C)[C@@H](CC(C)C)C(=O)N(C)[C@@H](CC(C)C)C(=O)N(C)[C@@H](C(C)C)C(=O)N1C [Compound C35] | 0.89 | < 2 | 99.11 | > 3
C/C=C/C[C@@H](C)[C@@H](O)[C@H]1C(=O)N[C@@H](CC)C(=O)N(C)CC(=O)N(C)CC(=O)N[C@@H](C(C)C)C(=O)N(C)[C@@H](CC(C)C)C(=O)N[C@@H](C)C(=O)N[C@H](C)C(=O)N(C)[C@@H](CC(C)C)C(=O)N(C)[C@@H](CC(C)C)C(=O)N(C)[C@@H](C(C)C)C(=O)N1C [Compound C37] | 1.56 | < 2 | 98.44 | > 3
C/C=C/C[C@@H](C)[C@@H](O)[C@H]1C(=O)N[C@@H](CC)C(=O)N(C)CC(=O)N(C)[C@@H]([C@@H](C)O)C(=O)N[C@@H](C(C)C)C(=O)N(C)[C@@H](CC(C)C)C(=O)N[C@@H](C)C(=O)N[C@H](C)C(=O)N(C)[C@@H](CC(C)C)C(=O)N(C)[C@@H](CC(C)C)C(=O)N(C)[C@@H](C(C)C)C(=O)N1C [Compound C38] | 1.57 | < 2 | 98.43 | < 3
C/C=C/C[C@@H](C)[C@@H](O)[C@H]1C(=O)N[C@@H](CC)C(=O)N(C)CC(=O)N(C)[C@@H](Cc2ccc(O)cc2)C(=O)N[C@@H](C(C)C)C(=O)N(C)[C@@H](CC(C)C)C(=O)N[C@@H](C)C(=O)N[C@H](C)C(=O)N(C)[C@@H](CC(C)C)C(=O)N(C)[C@@H](CC(C)C)C(=O)N(C)[C@@H](C(C)C)C(=O)N1C [Compound C39] | 3.78 | < 2 | 96.22 | < 3
C/C=C/C[C@@H](C)[C@@H](O)[C@H]1C(=O)N[C@@H](CC)C(=O)N(C)CC(=O)N(C)[C@H](C(C)C)C(=O)N[C@@H](C(C)C)C(=O)N(C)[C@@H](CC(C)C)C(=O)N[C@@H](C)C(=O)N[C@H](C)C(=O)N(C)[C@@H](CC(C)C)C(=O)N(C)[C@@H](CC(C)C)C(=O)N(C)[C@@H](C(C)C)C(=O)N1C [Compound C42] | 1.26 | < 2 | 98.74 | > 3
C/C=C/C[C@@H](C)[C@@H](O)[C@H]1C(=O)N[C@@H](CC)C(=O)N(C)CC(=O)N(C)[C@@H](CCCC)C(=O)N[C@@H](C(C)C)C(=O)N(C)[C@@H](CC(C)C)C(=O)N[C@@H](C)C(=O)N[C@H](C)C(=O)N(C)[C@@H](CC(C)C)C(=O)N(C)[C@@H](CC(C)C)C(=O)N(C)[C@@H](C(C)C)C(=O)N1C [Compound C43] | 0.29 | < 2 | 99.71 | < 3
C/C=C/C[C@@H](C)[C@@H](O)[C@H]1C(=O)N[C@@H](CC)C(=O)N(C)CC(=O)N(C)[C@@H](CCC)C(=O)N[C@@H](C(C)C)C(=O)N(C)[C@@H](CC(C)C)C(=O)N[C@@H](C)C(=O)N[C@H](C)C(=O)N(C)[C@@H](CC(C)C)C(=O)N(C)[C@@H](CC(C)C)C(=O)N(C)[C@@H](C(C)C)C(=O)N1C [Compound C44] | −0.07 | < 2 | 100.07 | < 3
C/C=C/C[C@@H](C)[C@@H](O)[C@H]1C(=O)N[C@@H](CC)C(=O)N(C)CC(=O)N(C)[C@@H](CC(C)C)C(=O)N[C@@H](C(C)C)C(=O)N(C)[C@@H](CC(C)C)C(=O)N[C@@H](CC)C(=O)N[C@H](C)C(=O)N(C)[C@@H](CC(C)C)C(=O)N(C)[C@@H](CC(C)C)C(=O)N(C)[C@@H](C(C)C)C(=O)N1C [Compound C98] | 4.70 | < 2 | 95.30 | –
C/C=C/C[C@@H](C)[C@@H](O)[C@H]1C(=O)N[C@@H](CC)C(=O)N(C)CC(=O)N(C)[C@@H]([C@@H](C)O)C(=O)N[C@@H](C(C)C)C(=O)N(C)[C@@H](CC(C)C)C(=O)N[C@@H](CC)C(=O)N[C@H](C)C(=O)N(C)[C@@H](CC(C)C)C(=O)N(C)[C@@H](CC(C)C)C(=O)N(C)[C@@H](C(C)C)C(=O)N1C [Compound C99] (cyclo([Abu][Sar][NMeT]V[NMeL][Abu][dA][NMeL][NMeL][NMeV][MeBmt])) | 2.59 | < 2 | 97.41 | –
C/C=C/C[C@@H](C)[C@@H](O)[C@H]1C(=O)N[C@@H](CC)C(=O)N(C)CC(=O)N(C)[C@@H](Cc2ccc(O)cc2)C(=O)N[C@@H](C(C)C)C(=O)N(C)[C@@H](CC(C)C)C(=O)N[C@@H](CC)C(=O)N[C@H](C)C(=O)N(C)[C@@H](CC(C)C)C(=O)N(C)[C@@H](CC(C)C)C(=O)N(C)[C@@H](C(C)C)C(=O)N1C [Compound C100] (cyclo([Abu][Sar][NMeY]V[NMeL][Abu][dA][NMeL][NMeL][NMeV][MeBmt])) | 4.28 | < 2 | – | –
C/C=C/C[C@@H](C)[C@@H](O)[C@H]1C(=O)N[C@@H](CC)C(=O)N(C)CC(=O)N(C)[C@@H](C(C)C)C(=O)N[C@@H](C(C)C)C(=O)N(C)[C@@H](CC(C)C)C(=O)N[C@@H](CC)C(=O)N[C@H](C)C(=O)N(C)[C@@H](CC(C)C)C(=O)N(C)[C@@H](CC(C)C)C(=O)N(C)[C@@H](C(C)C)C(=O)N1C [Compound C101] (cyclo([Abu][Sar][NMeV]V[NMeL][Abu][dA][NMeL][NMeL][NMeV][MeBmt])) | 0.15 | < 2 | 99.85 | –
C/C=C/C[C@@H](C)[C@@H](O)[C@H]1C(=O)N[C@@H](CC)C(=O)N(C)CC(=O)N(C)[C@@H](CCC)C(=O)N[C@@H](C(C)C)C(=O)N(C)[C@@H](CC(C)C)C(=O)N[C@@H](CC)C(=O)N[C@H](C)C(=O)N(C)[C@@H](CC(C)C)C(=O)N(C)[C@@H](CC(C)C)C(=O)N(C)[C@@H](C(C)C)C(=O)N1C [Compound C102] (cyclo([Abu][Sar][NMeNva]V[NMeL][Abu][dA][NMeL][NMeL][NMeV][MeBmt])) | 0.70 | < 2 | – | –
C/C=C/C[C@@H](C)[C@@H](O)[C@H]1C(=O)N[C@@H](CC)C(=O)N(C)CC(=O)N(C)[C@H](C(C)C)C(=O)N[C@@H](C(C)C)C(=O)N(C)[C@@H](CC(C)C)C(=O)N[C@@H](CC)C(=O)N[C@H](C)C(=O)N(C)[C@@H](CC(C)C)C(=O)N(C)[C@@H](CC(C)C)C(=O)N(C)[C@@H](C(C)C)C(=O)N1C [Compound C103] (cyclo([Abu][Sar][dNMeV]V[NMeL][Abu][dA][NMeL][NMeL][NMeV][MeBmt])) | 13.65 | < 2 | 86.35 | –
C/C=C/C[C@@H](C)[C@@H](O)[C@H]1C(=O)N[C@@H](CC)C(=O)N(C)CC(=O)N(C)[C@@H](CCCC)C(=O)N[C@@H](C(C)C)C(=O)N(C)[C@@H](CC(C)C)C(=O)N[C@@H](CC)C(=O)N[C@H](C)C(=O)N(C)[C@@H](CC(C)C)C(=O)N(C)[C@@H](CC(C)C)C(=O)N(C)[C@@H](C(C)C)C(=O)N1C [Compound C104] | 0.99 | < 2 | 99.01 | –
